# Where a name gives a salt, the structure may show the parent alone.
# How the values were obtained:
# NPY2 receptors = biological target: T1, NPY2 receptors (Homo sapiens, UniProt P49146); assay: Neuropeptide Y receptor binding assay (125I-PYY, KAN-TS cell membranes); settings: 10 μM compound; read-out: NPY-2@10, % Inh
# T1 construct: Cell Membranes from KAN-TS cells having NPY2 receptors; endogenous in cells; host or cells: KAN-TS cells (membranes)
# T1 sequence (P49146 1-381): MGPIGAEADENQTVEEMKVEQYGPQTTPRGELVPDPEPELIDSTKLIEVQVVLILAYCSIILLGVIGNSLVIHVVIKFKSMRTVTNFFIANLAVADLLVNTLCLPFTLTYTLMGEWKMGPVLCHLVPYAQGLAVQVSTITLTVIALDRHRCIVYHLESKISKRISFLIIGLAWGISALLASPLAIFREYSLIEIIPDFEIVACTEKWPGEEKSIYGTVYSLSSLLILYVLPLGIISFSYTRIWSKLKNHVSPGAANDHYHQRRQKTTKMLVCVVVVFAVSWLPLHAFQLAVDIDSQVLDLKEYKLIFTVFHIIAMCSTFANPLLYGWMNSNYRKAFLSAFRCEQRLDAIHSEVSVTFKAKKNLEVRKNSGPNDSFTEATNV
# How it was run: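 Membranes from KAN-TS cells competed with 125I-PYY in binding buffer containing BSA, test compound at 10 μM final, 1 hr at room temperature. Nonspecific binding defined with 1 μM PYY final. Tubes centrifuged, washed with PBS and bound radioactivity gamma-counted.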
# human V2 receptor = human V2 receptor (Homo sapiens, UniProt P30518); assay: V2 binding assay (3H-AVP displacement, HEK-293 membranes); design: expressed in transfected cells; host or cells: HEK-293 (membranes); settings: for inhibition at 1 µM: 1.0 μM compound, read-out: V2@1.0, % Inh
# How it was run: (§1)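 Membranes from transfected HEK-293 cells incubated 1 h at room temperature with ³H-AVP (10,000 cpm) in 50 mM Tris, 5 mM MgCl2, 0.1% BSA, pH 7.5 plus protease inhibitors. Non-specific binding set with 1.25 μM AVP. Bound tracer collected on PEI-soaked GF/C filters and counted by scintillation.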
# human V1a receptor [1] = biological target: T2, human V1a receptor (Homo sapiens, UniProt P37288); assay: V1a binding assay (3H-AVP displacement, HEK-293 membranes); design: expressed in transfected cells; host or cells: HEK-293 (membranes); settings: for inhibition at 1 µM: 1.0 μM compound, read-out: V1a@1.0, % Inh
# How it was run: as §1
# human V1a receptor [2] = biological target: T2, human V1a receptor; assay: V1a functional assay, intracellular calcium mobilization in transfected HEK-293 cells (FLIPR); design: expressed in transfected cells; host or cells: HEK-293; settings: challenge 1 nM AVP; read-out: Cell-Based Functional activity V1a IC50
# Experimental: (§2) V1a, V1b or V2 Functional Assay
# (§3) HEK-293 cells were grown in DMEM media supplemented with 10% FBS and glutamine (Gibco BRL, Grand Island, N.Y.). Once transfected the cells were passed biweekly by trypsinization and seeded into 96 well plates at 33,000 cells per well. HEK-293 were transfected with human V1a, V1b or V2 DNA using DMRIE-C reagent from Life Technologies, Inc., Grand Island, N.Y. Cells were tested for their responsiveness to vasopressin 48 hours after transfection. Stable lines were generated by selecting cells grown in culture media containing geneticin (500 μg/ml, Life Technologies).
# (§4) Intracellular calcium mobilization was measured in HEK-293 cells transfected to express either human V1a, oxytocin or V1b receptors. Cells were plated into black 96-well Packard Clear-View plates 4 to 7 days prior to use. The cells were loaded with fluo-3 AM (Molecular Probes, Inc., Eugene, Oreg.) in buffer (25 mM Hepes, 125 mM NaCl, 1 gm/l glucose, 0.1% BSA, 5 mM KCl, 0.5 mM CaCl2, 0.5 mM MgCl2, pH 7.45) containing Pluronic (Molecular Probes) Cells were incubated with 5 μM fluo-3 AM for 1 hour shielded from light at room temperature. Intracellular fluorescence was measured using FLIPR (fluorometric imaging plate reader; Molecular Devices, Inc., Sunnyvale, Calif.). The FLIPR protocol called for images to be collected at one second intervals with 50 μl of the test compound added after the initial 10 images. An additional 70 images were then taken to detect any compound agonistic activity. FLIPR then added 50 μl of agonist peptide and collected a final 40 images for quantitating compound antagonistic activity. V1a- and V1b-expressing HEK cells were challenged with 1 nM and 0.5 nM AVP, respectively. Oxytocin-expressing HEK cells were challenged with 0.5 nM oxytocin (Peninsula Labs).
# (§5) The data from the cAMP accumulation and the calcium mobilization assays are expressed as IC50 values as determined from dose response curves.
# human V1b receptor [3] = biological target: T3, human V1b receptor (Homo sapiens, UniProt P47901); assay: V1b functional assay, intracellular calcium mobilization in transfected HEK-293 cells (FLIPR); type: cell-based; design: expressed in transfected cells; host or cells: HEK-293; settings: for IC50: challenge 0.5 nM AVP, read-out: Cell-Based Functional activity V1b IC50
# T3 sequence (P47901 1-424): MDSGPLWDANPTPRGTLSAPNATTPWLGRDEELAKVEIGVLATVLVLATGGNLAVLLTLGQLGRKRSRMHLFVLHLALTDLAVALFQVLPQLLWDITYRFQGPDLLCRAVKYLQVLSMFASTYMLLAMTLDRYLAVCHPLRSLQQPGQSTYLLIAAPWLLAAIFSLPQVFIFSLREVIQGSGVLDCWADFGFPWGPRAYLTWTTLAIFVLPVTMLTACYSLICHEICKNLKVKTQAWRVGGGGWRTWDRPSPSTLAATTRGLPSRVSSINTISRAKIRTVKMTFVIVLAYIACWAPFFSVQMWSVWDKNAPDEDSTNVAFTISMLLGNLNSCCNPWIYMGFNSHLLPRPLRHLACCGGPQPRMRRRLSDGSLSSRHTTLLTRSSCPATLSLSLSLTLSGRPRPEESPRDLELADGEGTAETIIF
# Experimental: as §2, §3, §4, §5
# human V1b receptor [4] = biological target: T3, human V1b receptor; assay: V1b binding assay (3H-AVP displacement, HEK-293 membranes); design: expressed in transfected cells; host or cells: HEK-293 (membranes); settings: for inhibition at 10 µM: 10 μM compound, read-out: V1b % Inh @10; for inhibition at 1 µM: 1.0 μM compound, read-out: V1b@1.0, % Inh
# How it was run: as §1
# T2 sequence (P37288 whole entry): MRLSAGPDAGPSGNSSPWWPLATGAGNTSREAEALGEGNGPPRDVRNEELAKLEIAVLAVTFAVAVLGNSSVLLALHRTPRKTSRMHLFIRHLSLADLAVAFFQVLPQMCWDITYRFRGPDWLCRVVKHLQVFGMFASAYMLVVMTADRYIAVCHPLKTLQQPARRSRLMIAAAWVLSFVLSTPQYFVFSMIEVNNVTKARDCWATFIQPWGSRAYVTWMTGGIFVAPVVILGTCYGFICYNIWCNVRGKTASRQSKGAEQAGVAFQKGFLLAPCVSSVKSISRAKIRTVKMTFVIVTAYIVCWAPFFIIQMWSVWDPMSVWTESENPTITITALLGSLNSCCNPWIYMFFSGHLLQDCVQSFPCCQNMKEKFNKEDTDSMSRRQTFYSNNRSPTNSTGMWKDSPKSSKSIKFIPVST
# Chain of human V2 receptor (P30518 whole entry): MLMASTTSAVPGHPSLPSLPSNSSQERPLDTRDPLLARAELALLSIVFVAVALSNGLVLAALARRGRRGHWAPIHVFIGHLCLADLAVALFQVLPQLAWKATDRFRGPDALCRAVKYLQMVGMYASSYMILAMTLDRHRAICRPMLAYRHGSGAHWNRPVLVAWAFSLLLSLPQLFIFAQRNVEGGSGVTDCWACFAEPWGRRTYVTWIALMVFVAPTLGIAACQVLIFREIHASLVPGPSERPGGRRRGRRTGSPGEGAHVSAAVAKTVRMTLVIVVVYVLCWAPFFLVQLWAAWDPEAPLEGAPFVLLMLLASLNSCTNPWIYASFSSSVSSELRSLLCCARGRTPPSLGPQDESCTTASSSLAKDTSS
inhibition at 10 µM (NPY2 receptors),inhibition at 1 µM (human V2 receptor),IC50 (human V1a receptor [1]),inhibition at 10 µM (human V1b receptor [4]),inhibition at 1 µM (human V1a receptor [1]),Structure (SMILES),further results
94%,42%,50 nM,74%,–,"NCCn1c(=O)n(C2CCN(C(=S)NC(c3ccccc3)c3ccccc3)CC2)c2ccccc21 [Compound 63, 1-[(N1-Piperidinocarbothioyldiphenylmethylamino)-4-yl]-3-(2-aminoethyl)-1,3-dihydrobenzimidazol-2-one Hydrochloride]",IC50 (human V1a receptor [2]): 310 nM; IC50 (human V1b receptor [3]): 8060 nM; IC50 (human V1b receptor [4]): 4700 nM
51%,–,77 nM,51%,–,"NCCCCn1c(=O)n(C2CCN(C(=S)NC(c3ccccc3)c3ccc(Cl)cc3)CC2)c2ccccc21 (stereo not drawn) [Compound 65, 1-[(N1-Piperidinocarbothioyl-4-chlorodiphenylmethylamino)-4-yl]-3-(4-aminobutyl)-1,3-dihydro-benzimidazol-2-one]",IC50 (human V2 receptor): 500 nM; IC50 (human V1a receptor [2]): 460 nM; IC50 (human V1b receptor [3]): 21000 nM
0%,2%,–,–,56%,"O=C(NCc1ccccc1)N1CCC(n2c(=O)n(CCCN3CCCCC3)c3ccccc32)CC1 [Compound 106, 1-[(N1-piperidinocarbonybenzylamino)-4-yl]-3-(3-N-piperidinylpropyl)-1,3-dihydrobenzimidazol-2-one]",inhibition at 1 µM (human V1b receptor [4]): 32%
10%,20%,–,0%,33%,O=c1[nH]c2ccccc2n1C1CCN(C(=S)NCCN2CCOCC2)CC1 [Compound 26],–
16%,0%,–,26%,–,CC(C)(C)OC(=O)NCCNC(=O)C(Cc1ccccc1)NC(=S)N1CCC(n2c(=O)[nH]c3ccccc32)CC1 (stereo not drawn) [Compound 46],"inhibition at 0.1 µM (human V1a receptor [1]; 0.1 μM compound, read-out: V1a % Inh @0.1): 8%"
0%,0%,–,29%,0%,O=C(NCc1ccccc1)N1CCC(n2c(=O)[nH]c3ccccc32)CC1 [Compound 74],–

# More lines, now with the values behind:
Structure (SMILES),inhibition at 10 µM (NPY2 receptors),inhibition at 1 µM (human V2 receptor),IC50 (human V1a receptor [1]),inhibition at 10 µM (human V1b receptor [4]),inhibition at 1 µM (human V1a receptor [1]),further results
"NCCCCn1c(=O)n(C2CCN(C(=S)NC(c3ccccc3)c3ccccc3)CC2)c2ccccc21 [Compound 64, 1-[(N1-Piperidinocarbothioyldiphenylmethylamino)-4-yl]-3-(4-aminobutyl)-1,3-dihydro-benzimidazol-2-one]",93%,–,24 nM,–,–,IC50 (human V2 receptor): 560 nM; IC50 (human V1a receptor [2]): 140 nM; IC50 (human V1b receptor [3]): 12100 nM; IC50 (human V1b receptor [4]): 5400 nM
"NCCCn1c(=O)n(C2CCN(C(=S)NC(c3ccccc3)c3ccccc3)CC2)c2ccccc21 (as salt: hydrochloride) [Compound 55, 1-[(N1-Piperidinocarbothioyldiphenylmethylamino)-4-yl]-3-(3-aminopropyl)-1,3-dihydrobenzimidazol-2-one Monohydrochloride]",–,–,–,–,–,melting point: 189 to 190 °C
"O=C(NC(c1ccccc1)c1ccccc1)N1CCC(n2c(=O)n(CCCN3CCOCC3)c3ccccc32)CC1 [Compound 95, 1-[(N1-piperidinocarbonylbiphenylmethylamino)-4-yl]-3-(3-morpholinopropyl)-1,3-dihydrobenzimidazol-2-one]",0%,2%,162 nM,–,–,inhibition at 1 µM (human V1b receptor [4]): 23%
"NCCCn1c(=O)n(C2CCN(C(=O)Nc3ccccc3-c3ccccc3)CC2)c2ccccc21 [Compound 62, 1-[(N1-Piperidinocarboyl-2-biphenylylamino)-4-yl]-3-(3-aminopropyl)-1,3-dihydro-benzimidazol-2-one hydrochloride]",50%,0%,200 nM,35%,–,"IC50 (human V1a receptor [2]): 690 nM; inhibition at 30 µM (human V1b receptor [3]; HEK293, 30 μM compound, read-out: Cell-Based Functional activity V1b % Inh. @ 30): 0%"
O=c1[nH]c2ccccc2n1C1CCN(C(=S)NC(Cc2ccccc2)c2ccccc2)CC1 (stereo not drawn) [Compound 32],26%,9%,–,4%,42%,–
O=c1[nH]c2ccccc2n1C1CCN(C(=S)NC2c3ccccc3-c3ccccc32)CC1 [Compound 33],13%,0%,–,9%,33%,–
O=c1n(CCCCN2CCCCC2)c2ccccc2n1C1CCN(C(=S)NC(c2ccccc2)c2ccccc2)CC1 [Compound 107],95%,12%,22 nM,–,–,inhibition at 1 µM (human V1b receptor [4]): 45%
"O=c1n(CCCO)c2ccccc2n1C1CCN(C(=S)NC(c2ccccc2)c2ccccc2)CC1 [Compound 108, 1-[(N1-piperidinocarbothioylbiphenylmethylamino)-4-yl]-3-(3-hydroxypropyl)-1,3-dihydrobenzimidazol-2-one]",41%,16%,579 nM,–,–,inhibition at 1 µM (human V1b receptor [4]): 37%
"CC1CCN(CCCn2c(=O)n(C3CCN(C(=O)NC(c4ccccc4)c4ccccc4)CC3)c3ccccc32)CC1 [Compound 99, 1-[(N1-piperidinocarbonylbiphenylmethylamino)-4-yl]-3-(4-methylpiperidin-1-yl-propyl)-1,3-dihydrobenzimidazol-2-one]",29%,16%,126 nM,–,–,inhibition at 1 µM (human V1b receptor [4]): 46%
"O=c1[nH]c2ccccc2n1C1CCN(C(=S)NC(c2ccccc2)(c2ccccc2)c2ccccc2)CC1 [Compound 25, 1-[(N1-Piperidinocarbothioyltriphenylmethylamino)-4-yl]-1,3-dihydro-benzimidazol-2-one]",13%,0%,–,0%,0%,–
O=c1[nH]c2ccccc2n1C1CCN(C(=S)NCCc2ccccc2)CC1 [Compound 22],11%,4%,–,0%,45%,–
CC1CC(C)CN(CCCn2c(=O)n(C3CCN(C(=S)NC(c4ccccc4)c4ccccc4)CC3)c3ccccc32)C1 (stereo not drawn) [Compound 82],91%,11%,6 nM,–,–,IC50 (human V1b receptor [4]): 140 nM

# — US6653478B2, “Substituted benzimidazol-2-ones as vasopressin receptor antagonists and neuropeptide Y modulators” (Ortho-McNeil Pharmaceutical, Inc., priority 2000, dated 2003)
